# Laboratory results: patent US12391676B2 (H. LEE MOFFITT CANCER CENTER AND RESEARCH INSTITUTE, INC., priority 2018, dated 2025)
# Where two headings read alike, the source gives them in different places.
# Legend:
# MM1.S cells = assay: Antiproliferative activity, MM1.S cells; format: cell-based; settings: Homo sapiens; for GI50: Table 2, read-out: GI50 (MM1S); for IC50: Table 1 comments
# Description: Cellular activity of promising compounds is assessed using MM.1S and MV4-11 AML cells using c-Myc levels as biomarker (6-12 hr treatment) and antiproliferative activity (48-72 hr treatment) as described (Ciceri et al., Dual kinase-bromodomain inhibitors for rationally designed polypharmacology. Nat Chem Biol 2014).
# BRD4 [1] = biological target: T1, BRD4 (Homo sapiens (Human), UniProt O60885); assay: BRD4 DSF thermal shift (ΔTm); format: binding; settings: for BRD4 DSF (ΔTm): Table 2; for DSF ΔTm: Table 1
# UKE1 cells [2] = assay: Growth inhibition GI50, UKE1 cells; format: cell-based
# BRD4 [3] = biological target: T1, BRD4; assay: BRD4 IC50; format: binding; settings: Table 2
# JAK2 = JAK2 (Homo sapiens (Human), UniProt O60674); assay: JAK2 IC50; format: biochemical
# UKE1 cells [4] = assay: Drug persistence of UKE1 cells under escalating drug concentration; format: cell-based; settings: for development of drug persistence: UKE1 cells started at GI20, concentration doubled if growth >90% of DMSO; for final drug concentration at the end of the experiment: drug persistence experiment
# Description: UKE1 cells were incubated with DMSO, MA9-060, fedratinib, or ruxolitinib at their respective GI20 concentrations. Cell growth was compared to DMSO. Cells were passed back to the same density after counting. Drug concentration was doubled if growth was >90% of DMSO. Fold GI20 is plotted vs time, with drug persistence represented by upward steps of the lines. The final MA9-060, ruxolitinib, and fedratinib concentrations at the end of the experiment were 0.15, 0.6 and 2.4 uM, respectively. Fedratinib-treated cells lost complete viability after about 30 days (after 3 weeks in 2.4 uM).
# c-Myc = settings: background, literature; cited from earlier work
# SET2 cells = assay: Growth inhibition GI50, SET2 cells; format: cell-based; settings: Homo sapiens, SET-2; Table 1 comments; unit printed only for the neighbouring values in the cell
# [5] = Mouse microsome stability; format: in vitro ADME; settings: Table 1 comments; meaning of % not stated
# BaF3-JAK2-VF cells = assay: Growth inhibition GI50, BaF3-JAK2-VF cells; format: cell-based; settings: Table 1 comments
# BRD4-1 = BRD4-1 (Homo sapiens (Human), UniProt O60885); assay: Estimated BRD4-1 IC50; format: binding; settings: Table 1
# [6] = UKE1, Table 2, read-out: GI50 (UKE1)
# [7] = UKE1, Table 1 comments, read-out: GI50 (UKE1 cells)
# JAK2, sequence (O60674 whole entry): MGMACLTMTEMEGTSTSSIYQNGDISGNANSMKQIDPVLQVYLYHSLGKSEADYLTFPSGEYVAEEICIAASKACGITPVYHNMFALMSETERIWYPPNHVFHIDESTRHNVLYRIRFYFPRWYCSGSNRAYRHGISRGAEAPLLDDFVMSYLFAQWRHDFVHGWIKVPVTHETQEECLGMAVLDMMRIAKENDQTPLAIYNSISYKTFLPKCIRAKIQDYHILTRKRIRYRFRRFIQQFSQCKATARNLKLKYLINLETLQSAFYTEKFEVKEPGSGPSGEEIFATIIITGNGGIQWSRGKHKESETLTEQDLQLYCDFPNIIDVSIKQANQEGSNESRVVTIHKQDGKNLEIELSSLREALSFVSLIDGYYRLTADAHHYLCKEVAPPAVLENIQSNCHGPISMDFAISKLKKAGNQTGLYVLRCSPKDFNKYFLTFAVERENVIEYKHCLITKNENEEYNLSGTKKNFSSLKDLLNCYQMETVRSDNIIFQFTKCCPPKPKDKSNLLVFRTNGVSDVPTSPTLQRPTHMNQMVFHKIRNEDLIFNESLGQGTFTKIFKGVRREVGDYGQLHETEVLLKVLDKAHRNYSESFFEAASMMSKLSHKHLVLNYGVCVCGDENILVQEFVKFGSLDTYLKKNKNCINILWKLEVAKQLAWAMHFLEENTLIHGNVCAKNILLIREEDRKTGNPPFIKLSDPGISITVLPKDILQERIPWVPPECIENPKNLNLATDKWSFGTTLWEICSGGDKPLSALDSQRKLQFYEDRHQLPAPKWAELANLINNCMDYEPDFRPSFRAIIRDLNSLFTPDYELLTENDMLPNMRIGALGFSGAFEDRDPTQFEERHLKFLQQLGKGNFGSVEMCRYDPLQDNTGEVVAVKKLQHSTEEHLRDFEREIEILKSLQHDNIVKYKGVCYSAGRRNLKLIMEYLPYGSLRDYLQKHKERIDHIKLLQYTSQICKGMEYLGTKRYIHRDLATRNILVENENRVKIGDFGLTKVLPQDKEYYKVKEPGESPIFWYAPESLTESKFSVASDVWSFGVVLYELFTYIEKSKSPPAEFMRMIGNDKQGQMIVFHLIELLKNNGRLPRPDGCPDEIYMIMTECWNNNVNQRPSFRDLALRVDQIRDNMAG
GI50 (MM1.S cells) [nM],BRD4 DSF (ΔTm) (BRD4 [1]) [°C],SMILES,GI50 (UKE1 cells [2]; [6]) [nM],further results
43,13.6,"Cc1cnc(Nc2cc(F)c(C3CCN(C)CC3)cn2)nc1Nc1ccc(Cl)c(NS(=O)(=O)C(C)(C)C)c1 [PN1-064, N-(2-Chloro-5-((2-((4-fluoro-5-(1-methylpiperidin-4-yl)pyridin-2-yl)amino)-5-methylpyrimidin-4-yl)amino)phenyl)-2-methylpropane-2-sulfonamide]",54,
,12.3,"Cc1cnc(Nc2ccc(C3CCN(C)CC3)c(F)c2)nc1Nc1cccc(NS(=O)(=O)C(C)(C)C)c1 [SY3-038, N-(3-((2-((3-Fluoro-4-(1-methylpiperidin-4-yl)phenyl)amino)-5-methylpyrimidin-4-yl)amino)phenyl)-2-methylpropane-2-sulfonamide]",64,IC50 (BRD4 [3]): 87 nM; IC50 (JAK2; Table 2): 0.7 nM
,14.3,"Cc1cnc(Nc2cc(F)c(C3CCN(C)CC3)c(F)c2)nc1Nc1cnc(Cl)c(NS(=O)(=O)C(C)(C)C)c1 [MA11-017, N-(2-chloro-5-((2-((3,5-difluoro-4-(1-methylpiperidin-4-yl)phenyl)amino)-5-methylpyrimidin-4-yl)amino)pyridin-3-yl)-2-methylpropane-2-sulfonamide]",102,
186,12.8,"Cc1cnc(Nc2cc(F)c(C3CCN(C)CC3)cn2)nc1Nc1ccc2c(c1)N(S(=O)(=O)C(C)(C)C)CC2 [PN2-128, N^4-(1-(tert-Butylsulfonyl)indolin-6-yl)-N^2-(4-fluoro-5-(1-methylpiperidin-4-yl)pyridin-2-yl)-5-methylpyrimidine-2,4-diamine]",207,
220,11.1,"Cc1cnc(Nc2cc(F)cc(N3CCN(C)CC3)c2)nc1Nc1cccc(NS(=O)(=O)C(C)(C)C)c1 [SY3-040, N-(3-((2-((3-Fluoro-5-(4-methylpiperazin-1-yl)phenyl)amino)-5-methylpyrimidin-4-yl)amino)phenyl)-2-methylpropane-2-sulfonamide]",,IC50 (BRD4 [3]): 127 nM; IC50 (JAK2; Table 2): 3.1 nM
91,10.6,"Cc1cnc(Nc2ccc(C3CCN(C)CC3)cc2)nc1Nc1cccc(NS(=O)(=O)C(C)(C)C)c1 [SY3-034, 2-Methyl-N-(3-((5-methyl-2-((4-(1-methylpiperidin-4-yl)phenyl)amino)pyrimidin-4-yl)amino)phenyl)propane-2-sulfonamide]",220,IC50 (JAK2; Table 2): 1.6 nM
3310,6.0,"Cc1cnc(Nc2ccc(N3CCN(C)CC3)c(F)c2)cc1Nc1cccc(NS(=O)(=O)C(C)(C)C)c1 [SY3-005, N-(3-((2-((3-Fluoro-4-(4-methylpiperazin-1-yl)phenyl)amino)-5-methylpyridin-4-yl)amino)phenyl)-2-methylpropane-2-sulfonamide]",5300,IC50 (BRD4 [3]): 3960 nM; IC50 (JAK2; Table 2): > 1000 nM
152,13.8,"Cc1cnc(Nc2cc(F)c(C3CCN(C)CC3)c(F)c2)nc1Nc1ccc2c(c1)N(S(=O)(=O)C(C)(C)C)CC2 [PN2-129, N^4-(1-(tert-butylsulfonyl)indolin-6-yl)-N^2-(3,5-difluoro-4-(1-methylpiperidin-4-yl)phenyl)-5-methylpyrimidine-2,4-diamine]",222,
72,13.4,"Cc1cnc(Nc2cc(F)c(C3CCN(C)CC3)cn2)nc1Nc1ccc(F)c(NS(=O)(=O)C(C)(C)C)c1 [PN2-089, N-(2-Fluoro-5-((2-((4-fluoro-5-(1-methylpiperidin-4-yl)pyridin-2-yl)amino)-5-methylpyrimidin-4-yl)amino)phenyl)-2-methylpropane-2-sulfonamide]",134,

# The next lines start with the compound.
SMILES,GI50 (MM1.S cells) [nM],BRD4 DSF (ΔTm) (BRD4 [1]) [°C],GI50 (UKE1 cells [2]; [6]) [nM],further results
"Cc1cnc(Nc2ccc(N3CCN(C)CC3)c(F)c2)cc1Nc1cccc(S(=O)(=O)NC(C)(C)C)c1 [MA9-024, N-(Tert-butyl)-3-((2-((3-fluoro-4-(4-methylpiperazin-1-yl)phenyl)amino)-5-methylpyridin-4-yl)amino)benzenesulfonamide]",4790,4.1,> 24000,
"Cc1cnc(Nc2ccc(C3CCN(C)CC3)c(F)c2)nc1Nc1ccc2c(c1)N(S(=O)(=O)C(C)(C)C)CC2 [MA9-086, N4-(1-(Tert-butylsulfonyl)indolin-6-yl)-N2-(3-fluoro-4-(1-methylpiperidin-4-yl)phenyl)-5-methylpyrimidine-2,4-diamine]",194,13.4,,IC50 (BRD4 [3]): 6.4 nM; IC50 (JAK2; Table 2): 1.1 nM
N#CC[C@H](C1CCCC1)n1cc(-c2ncnc3[nH]ccc23)cn1 [ruxolitinib],,,,development of drug persistence (UKE1 cells [4]): persistently grew in increasing concentrations; final drug concentration at the end of the experiment (UKE1 cells [4]; UKE1 cells): 0.6 µM
Cc1cnc(Nc2ccc(C3CCN(C)CC3)cc2)nc1Nc1cccc(NS(=O)(=O)C(C)(C)C)c1 [drawing 12],,,,IC50 (MM1.S cells): 91 nM; DSF ΔTm (BRD4 [1]): 10.6 °C; GI50 (UKE1 cells [2]; [7]): 220 nM
"Cc1cnc(Nc2cc(F)cc(N3CCN(C)CC3)c2)nc1Nc1ccc(Cl)c(NS(=O)(=O)C(C)(C)C)c1 [MA9-062, N-(2-Chloro-5-((2-((3-fluoro-5-(4-methylpiperazin-1-yl)phenyl)amino)-5-methylpyrimidin-4-yl)amino)phenyl)-2-methylpropane-2-sulfonamide]",160,11.3,,IC50 (BRD4 [3]): 49 nM; IC50 (JAK2; Table 2): 17 nM
CC[C@@H]1C(=O)N(C)c2cnc(Nc3ccc(C(=O)NC4CCN(C)CC4)cc3OC)nc2N1C1CCCC1 [BI2536],,,,downregulation of c-Myc in MM.1S cells (c-Myc): strong downregulation
Cc1cnc(Nc2ccc(C3CCN(C)CC3)cc2)nc1Nc1ccc(Cl)c(NS(=O)(=O)C(C)(C)C)c1 [drawing 11],,,,"GI50 (SET2 cells): 240 nM; IC50 (MM1.S cells): 110 nM; DSF ΔTm (BRD4 [1]): 12.3 °C; Mouse microsome [5]: 81%; GI50 (UKE1 cells [2]; Table 1 comments, read-out: GI50 (UKE1 cells)): 340 nM; GI50 (UKE1 cells [2]; [7]): 280 nM; GI50 (BaF3-JAK2-VF cells): 99 nM"
"Cc1cnc(Nc2ccc(OCCN3CCCC3)c(F)c2)nc1Nc1ccc2c(c1)N(S(=O)(=O)C(C)(C)C)CC2 [MA11-007, N4-(1-(tert-butylsulfonyl)indolin-6-yl)-N2-(3-fluoro-4-(2-(pyrrolidin-1-yl)ethoxy)phenyl)-5-methylpyrimidine-2,4-diamine]",135,13.7,260,
Cc1cnc(Nc2ccc(N3CCN(CCCN)CC3)c(F)c2)nc1Nc1ccc(Cl)c(NS(=O)(=O)C(C)(C)C)c1,,,,DSF ΔTm (BRD4 [1]): 11 ± 0.02 °C; IC50 (BRD4-1): 4.6 nM
"Cc1cnc(Nc2cc(F)c(C3CCN(C)CC3)c(F)c2)nc1Nc1ccc2ccn(S(=O)(=O)C(C)(C)C)c2n1 [MA11-012, N4-(1-(tert-butylsulfonyl)-1H-pyrrolo[2,3-b]pyridin-6-yl)-N2-(3,5-difluoro-4-(1-methylpiperidin-4-yl)phenyl)-5-methylpyrimidine-2,4-diamine]",,3.9,580,
Cc1cnc(Nc2ccc(N3CCN(C)CC3)cc2)nc1Nc1cccc(S(=O)(=O)NC(C)(C)C)c1 [TG101209],,,,downregulation of c-Myc in MM.1S cells (c-Myc): strong downregulation
"Cc1cnc(Nc2ccc(C3CCN(C)CC3)cc2)nc1Nc1ccc(Cl)c(NS(=O)(=O)C(C)(C)C)c1 [MA9-050, N-(2-Chloro-5-((5-methyl-2-((4-(1-methylpiperidin-4-yl)phenyl)amino)pyrimidin-4-yl)amino)phenyl)-2-methylpropane-2-sulfonamide]",110,12.3,310,IC50 (BRD4 [3]): 143 nM; IC50 (JAK2; Table 2): 8.2 nM
"Cc1cnc(Nc2ccc(OCCN3CCCC3)cc2)nc1Nc1ccc2c(c1)N(S(=O)(=O)C(C)(C)C)CC2 [MA11-006, N4-(1-(tert-butylsulfonyl)indolin-6-yl)-5-methyl-N2-(4-(2-(pyrrolidin-1-yl)ethoxy)phenyl)pyrimidine-2,4-diamine]",499,11.0,502,
Cc1cnc(Nc2ccc(OCCN3CCCC3)cc2)nc1Nc1cccc(S(=O)(=O)NC(C)(C)C)c1 [fedratinib],,,,"development of drug persistence (UKE1 cells [4]): persistently grew in increasing concentrations; time until treated cells lost complete viability (UKE1 cells [4]; UKE1 cells, after 3 weeks in 2.4 uM): about 30 days; final drug concentration at the end of the experiment (UKE1 cells [4]; UKE1 cells): 2.4 µM"
Cc1cnc(Nc2ccc(N3CCNCC3)c(F)c2)nc1Nc1ccc(Cl)c(NS(=O)(=O)C(C)(C)C)c1,,,,"IC50 (JAK2; Table 1 comments, n = 2): 2.73 nM; DSF ΔTm (BRD4 [1]): 13 ± 0.05 °C; IC50 (BRD4-1): 1 nM"
Cc1cnc(Nc2ccc(N3CCN(CCCN)CC3)c(F)c2)nc1Nc1cccc(NS(=O)(=O)C(C)(C)C)c1,,,,DSF ΔTm (BRD4 [1]): 9.4 ± 0.09 °C; IC50 (BRD4-1): 15.7 nM
